ChEMBL document CHEMBL1667829, “Analysis of β-amino alcohols as inhibitors of the potential anti-tubercular target N-acetyltransferase” (Bioorg Med Chem Lett, 2011)
Active and inactive are the calls of the source. No cut-off for these calls is given here.

Legend:
[1] = target: T1, Arylamine N-acetyltransferase (Mycolicibacterium smegmatis, UniProt O86309); experiment: Inhibition of Mycobacterium smegmatis NAT using isoniazed substrate by acetyl-coA hydrolysis assay
T1 sequence (O86309 whole entry): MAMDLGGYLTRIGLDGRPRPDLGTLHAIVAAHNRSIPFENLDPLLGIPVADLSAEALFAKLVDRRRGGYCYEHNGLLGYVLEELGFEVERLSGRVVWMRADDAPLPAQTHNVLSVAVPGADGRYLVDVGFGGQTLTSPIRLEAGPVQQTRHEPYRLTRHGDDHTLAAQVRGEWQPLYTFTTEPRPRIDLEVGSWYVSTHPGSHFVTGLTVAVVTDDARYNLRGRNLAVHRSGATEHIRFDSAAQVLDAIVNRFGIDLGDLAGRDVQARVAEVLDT

[2] = target: T1, Arylamine N-acetyltransferase; experiment: Inhibition of Mycobacterium smegmatis NAT using 5-aminosalicylate substrate by acetyl-coA hydrolysis assay
[3] = target: T2, Arylamine N-acetyltransferase (Pseudomonas aeruginosa (strain ATCC 15692 / PAO1 / 1C / PRS 101 / LMG12228), UniProt Q9HUY3); experiment: Inhibition of Pseudomonas aeruginosa NAT using isoniazed substrate by acetyl-coA hydrolysis assay
T2 sequence (Q9HUY3 whole entry): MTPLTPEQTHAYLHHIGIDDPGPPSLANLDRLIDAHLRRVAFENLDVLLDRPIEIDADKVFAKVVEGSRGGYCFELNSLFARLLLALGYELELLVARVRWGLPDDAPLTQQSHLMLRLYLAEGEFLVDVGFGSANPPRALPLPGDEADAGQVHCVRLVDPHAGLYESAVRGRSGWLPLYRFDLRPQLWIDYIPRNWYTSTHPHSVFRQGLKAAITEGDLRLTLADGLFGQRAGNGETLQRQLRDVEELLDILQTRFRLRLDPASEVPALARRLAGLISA

[4] = target: T2, Arylamine N-acetyltransferase; experiment: Inhibition of Pseudomonas aeruginosa NAT using 5-aminosalicylate substrate by acetyl-coA hydrolysis assay
[5] = Inhibition of Mycobacterium marinum NAT using 5-aminosalicylate substrate by acetyl-coA hydrolysis assay
[6] = Inhibition of Mycobacterium marinum NAT using hydralazine substrate by acetyl-coA hydrolysis assay
Mycobacterium marinum [7] = experiment: Inhibition of Mycobacterium marinum NAT using isoniazed substrate at 30 uM by acetyl-coA hydrolysis assay
[8] = tested on: Mycobacterium tuberculosis; experiment: Antimicrobial activity against Mycobacterium tuberculosis at 50 ug/ml relative to control; type: functional
[9] = Inhibition of Mycobacterium marinum NAT using isoniazed substrate by acetyl-coA hydrolysis assay
Mycobacterium marinum [10] = experiment: Antimicrobial activity against Mycobacterium marinum at 80 ug/ml; type: functional, organism-based
Mycobacterium marinum [11] = experiment: Antimicrobial activity against Mycobacterium marinum at 100 ug/ml; type: functional, organism-based

SMILES: CC1(C)NC(=O)N(CC(O)COc2ccccc2C2CCCC2)C1=O (configuration not stated)
- IC50 [1]: 9.4 µM
- IC50 [2]: 17.7 µM
- IC50 [3]: 37 µM
- IC50 [4]: 16.2 µM
- IC50 [5]: 33.1 µM
- IC50 [6]: 1.5 µM
- inhibition (Mycobacterium marinum [7]): 58%
- inhibition at 50 µg/mL [8]: 20%

SMILES: CC1(C)NC(=O)N(CC(O)COc2cccc(-c3ccccc3)c2)C1=O (configuration not stated)
- inhibition (Mycobacterium marinum [7]): 6%

SMILES: CC1(C)NC(=O)N(CC(O)COc2ccccc2F)C1=O (configuration not stated)
- inhibition (Mycobacterium marinum [7]): 0%

SMILES: CC1(C)NC(=O)N(CC(O)COc2ccccc2-c2ccccc2)C1=O (configuration not stated)
- inhibition (Mycobacterium marinum [7]): 24%

SMILES: CC1(C)NC(=O)N(CC(O)COc2ccc(-c3ccccc3)cc2)C1=O (configuration not stated)
- inhibition (Mycobacterium marinum [7]): 8%

SMILES: CC1(C)NC(=O)N(CC(O)COc2ccccc2Br)C1=O (configuration not stated)
- inhibition (Mycobacterium marinum [7]): 24%

SMILES: Cc1ccccc1OCC(O)CN1C(=O)NC(C)(C)C1=O (configuration not stated)
- inhibition (Mycobacterium marinum [7]): 0.5%

SMILES: CC1(C)NC(=O)N(CC(O)COc2ccccc2-c2cccc3ccccc23)C1=O (configuration not stated)
- inhibition (Mycobacterium marinum [7]): 28%

SMILES: O=C1NC(c2ccccc2)C(=O)N1CC(O)COc1ccccc1 (configuration not stated)
- inhibition (Mycobacterium marinum [7]): 0%

SMILES: O=C1CNC(=O)N1CC(O)COc1ccccc1 (configuration not stated)
- inhibition (Mycobacterium marinum [7]): 0%

SMILES: CC1(C)NC(=O)N(CC(O)COc2ccc(C3CCCC3)cc2)C1=O (configuration not stated)
- IC50 [1]: > 50 µM
- IC50 [2]: > 50 µM
- IC50 [3]: > 50 µM
- IC50 [4]: > 50 µM
- IC50 [9]: > 50 µM
- IC50 [5]: > 50 µM
- inhibition (Mycobacterium marinum [7]): 0%
- Activity (Mycobacterium marinum [10]): inactive
- Activity (Mycobacterium marinum [11]): inactive

SMILES: CC1(C)NC(=O)N(CC(O)COc2ccccc2[N+](=O)[O-])C1=O (configuration not stated)
- inhibition (Mycobacterium marinum [7]): 4%
